Here are results for 20 molecules from patent US9656992B2, “Pyrimidine compounds for the treatment of hepatitis C” (priority 2013, dated 2017).

This assay relates to HCV pseudoparticles, genotype 1a HCV E1 and E2 envelope (H77C isolate). As to the kind of experiment: HCV pseudoparticle infection assay (luciferase reporter, entry into Huh7 cells). The assay is classed as cell-based. The note with it: Hepatitis C virus, Huh-7, 48 h. On the technique in general: In a reporter assay the amount or activity of a reporter protein is the signal.
Where [1] appears, read: read-out: EC50 (nM) 1a (H77C), HCV pseudoparticles genotype 1a (H77C), Huh7 cells, luciferase measured 2 days after infection, class symbols.
Where [2] appears, read: read-out: EC50 (nM) 1a (H77C), HCV pseudoparticles genotype 1a (H77C), Huh7 cells, luciferase measured 2 days after infection, average of duplicates.

By EC50 is commonly meant the concentration giving half of the maximal effect.

Structures are written as SMILES. Where two headings read alike, the source gives them in different places.

As for `CNC(=O)C(=O)NCC(C)(C)CNC(=O)c1ccc(Nc2cc(NCc3ccc(Cl)cc3)nc(OCC(F)(F)F)n2)nc1` [Example 1009], under setting [1], the EC50 fell in the range of 0.01 to 10 nM.
The same measure, in the same setting: the value for `CC(C)(CNC(=O)C(=O)Nc1ccc(F)cc1F)CNC(=O)c1ccc(Nc2cc(NCc3ccc(Cl)cc3)nc(OCC(F)(F)F)n2)nc1` [Example 1008] was 0.01 to 10 nM.
On to `CC(C)(CNC(=O)C(=O)Nc1ccc(Cl)cc1)CNC(=O)c1ccc(Nc2cc(NCc3ccc(Cl)cc3)nc(OCC(F)(F)F)n2)nc1` [Example 1020], for which, under setting [1], the EC50 fell in the range of 0.01 to 10 nM.
Consider `CC(C)(CNC(=O)C(N)=O)CNC(=O)c1ccc(Nc2cc(NCc3ccc(Cl)cc3)nc(OCC(F)(F)F)n2)nc1` [Example 1001], for which the EC50 by setting is: under setting [2], 1.47 nM; under setting [1], 0.01 to 10 nM.
With `CC(C)(CNC(=O)C(=O)Nc1cccc(F)c1)CNC(=O)c1ccc(Nc2cc(NCc3ccc(Cl)cc3)nc(OCC(F)(F)F)n2)nc1` [Example 1014], under setting [1], the EC50 fell in the range of 0.01 to 10 nM.
Same read-out and setting: as for `CN(C)C(=O)C(=O)NCC(C)(C)CNC(=O)c1ccc(Nc2cc(NCc3ccc(Cl)cc3)nc(OCC(F)(F)F)n2)nc1` [Example 1006], the figure is 10 to 1000 nM; as for `CC(C)(CNC(=O)C(=O)NC1CCCCC1)CNC(=O)c1ccc(Nc2cc(NCc3ccc(Cl)cc3)nc(OCC(F)(F)F)n2)nc1` [Example 1005], 0.01 to 10 nM.
As to `Cc1cc(NC(=O)C(=O)NCC(C)(C)CNC(=O)c2ccc(Nc3cc(NCc4ccc(Cl)cc4)nc(OCC(F)(F)F)n3)nc2)no1` [Example 1015], the concentration for a half-maximal effect (EC50) was 1.31 nM under setting [2] and 0.01 to 10 nM under setting [1].
Regarding `CC(C)(CNC(=O)C(=O)Nc1ccc(F)cc1)CNC(=O)c1ccc(Nc2cc(NCc3ccc(Cl)cc3)nc(OCC(F)(F)F)n2)nc1` [Example 1012], the EC50 is 0.482 nM under setting [2] and 0.01 to 10 nM under setting [1].
For `CC(C)(CNC(=O)C(=O)N1CCOCC1)CNC(=O)c1ccc(Nc2cc(NCc3ccc(Cl)cc3)nc(OCC(F)(F)F)n2)nc1` [Example 1017], the 50% effective concentration (EC50) was 26.8 nM under setting [2] and 10 to 1000 nM under setting [1].
As to `CC(C)CNC(=O)C(=O)NCC(C)(C)CNC(=O)c1ccc(Nc2cc(NCc3ccc(Cl)cc3)nc(OCC(F)(F)F)n2)nc1` [Example 1004], the EC50 under setting [1] was in the range of 0.01 to 10 nM.
For the molecule `Cc1nnc(NC(=O)C(=O)NCC(C)(C)CNC(=O)c2ccc(Nc3cc(NCc4ccc(Cl)cc4)nc(OCC(F)(F)F)n3)nc2)s1` [Example 1011], the 50% effective concentration (EC50) under setting [1] lay within 10 to 1000 nM.
Regarding `CC(C)(CNC(=O)C(=O)Nc1ccccc1)CNC(=O)c1ccc(Nc2cc(NCc3ccc(Cl)cc3)nc(OCC(F)(F)F)n2)nc1` [Example 1002], the concentration giving a half-maximal response (EC50) under setting [1] fell in the range of 0.01 to 10 nM.
For `CC(C)(CNC(=O)C(=O)NCc1ccc(F)cc1)CNC(=O)c1ccc(Nc2cc(NCc3ccc(Cl)cc3)nc(OCC(F)(F)F)n2)nc1` [Example 1018], the EC50 under setting [1] fell in the range of 0.01 to 10 nM.
`CC(C)(CNC(=O)C(=O)Nc1nncs1)CNC(=O)c1ccc(Nc2cc(NCc3ccc(Cl)cc3)nc(OCC(F)(F)F)n2)nc1` [Example 1016]: the EC50 reads like this: under setting [2], 56.8 nM; under setting [1], 10 to 1000 nM.
The like results for `Cc1ccc(NC(=O)C(=O)NCC(C)(C)CNC(=O)c2ccc(Nc3cc(NCc4ccc(Cl)cc4)nc(OCC(F)(F)F)n3)nc2)cc1` [Example 1003] were, in that order, 0.214 nM and 0.01 to 10 nM.
`CC(C)(CNC(=O)C(=O)N1CCc2ccccc2C1)CNC(=O)c1ccc(Nc2cc(NCc3ccc(Cl)cc3)nc(OCC(F)(F)F)n2)nc1` [Example 1007]: the EC50 under setting [1] was in the range of 0.01 to 10 nM.
`CC(C)(CNC(=O)C(=O)Nc1cc(F)cc(F)c1)CNC(=O)c1ccc(Nc2cc(NCc3ccc(Cl)cc3)nc(OCC(F)(F)F)n2)nc1` [Example 1019]: the EC50 under setting [1] is 10 to 1000 nM.
On the same count and under the same terms, the value for `CC(C)(CNC(=O)C(=O)N1CCCCC1)CNC(=O)c1ccc(Nc2cc(NCc3ccc(Cl)cc3)nc(OCC(F)(F)F)n2)nc1` [Example 1010] was 10 to 1000 nM; that for `CC(C)(CNC(=O)C(=O)Nc1nccs1)CNC(=O)c1ccc(Nc2cc(NCc3ccc(Cl)cc3)nc(OCC(F)(F)F)n2)nc1` [Example 1013] was 0.01 to 10 nM.
